ChEMBL document CHEMBL5131472, “Synthesis and antiviral activity of formycin derivatives with anti-influenza virus activity” (Bioorg Med Chem, 2022)

Legend:
Influenza A virus = test: Antiviral activity against Influenza A virus A/WSN/33(H1N1) infected in dog MDCK cells assessed as reduction in viral titer in supernatants incubated for 24 hrs by plaque assay; format: functional, organism-based
[1] = Cytotoxicity against dog MDCK cells assessed as reduction in cell viability incubated for 48 hrs by CellTiter96 Aqueous one solution assay; format: toxicity, cell-based, Canis lupus familiaris

Compound	IC50 (Influenza A virus)	CC50 at 48 h [1]
CNc1ncnc2c([C@@H]3O[C@H](CO)[C@@H](O)[C@H]3O)n[nH]c12	0.015 µM	1.5 µM
CSc1ncnc2c([C@@H]3O[C@H](CO)[C@@H](O)[C@H]3O)n[nH]c12	0.01 µM	9.3 µM
OC[C@H]1O[C@@H](c2n[nH]c3c(N4CCOCC4)ncnc23)[C@H](O)[C@@H]1O		> 1000 µM
CSc1ncnc2c([C@@H]3O[C@H](CO)[C@@H](O)[C@@H]3O)n[nH]c12	> 3 µM	> 1000 µM
CC(C)Sc1ncnc2c([C@@H]3O[C@H](CO)[C@@H](O)[C@H]3O)n[nH]c12		503 µM
CC(C)Nc1ncnc2c([C@@H]3O[C@H](CO)[C@@H](O)[C@H]3O)n[nH]c12		> 1000 µM
OC[C@H]1O[C@@H](c2n[nH]c3c(N4CCCCC4)ncnc23)[C@H](O)[C@@H]1O		289 µM
CCNc1ncnc2c([C@@H]3O[C@H](CO)[C@@H](O)[C@H]3O)n[nH]c12	0.313 µM	5.7 µM
CN(C)c1ncnc2c([C@@H]3O[C@H](CO)[C@@H](O)[C@H]3O)n[nH]c12	2.84 µM	70 µM
OC[C@H]1O[C@@H](c2n[nH]c3c(S)ncnc23)[C@H](O)[C@@H]1O	0.571 µM	403 µM
CSc1nc(Cl)nc2c([C@@H]3O[C@H](CO)[C@@H](O)[C@H]3O)n[nH]c12	> 1 µM	> 1000 µM
COc1ncnc2c([C@@H]3O[C@H](CO)[C@@H](O)[C@H]3O)n[nH]c12	0.088 µM	1.2 µM
CSc1ncnc2c([C@@H]3O[C@H](CO)[C@@H](O)[C@H]3O)nn(C)c12	0.344 µM	205 µM
OC[C@H]1O[C@@H](c2n[nH]c3c(SC(F)(F)F)ncnc23)[C@H](O)[C@@H]1O	0.397 µM	3.6 µM
CSc1ncnc2c([C@@H]3O[C@H](CO)[C@@H](O)[C@]3(C)O)n[nH]c12	0.306 µM	> 1000 µM
NC(=O)CSc1ncnc2c([C@@H]3O[C@H](CO)[C@@H](O)[C@H]3O)n[nH]c12		307 µM
CCCCNc1ncnc2c([C@@H]3O[C@H](CO)[C@@H](O)[C@H]3O)n[nH]c12	0.68 µM	> 1000 µM
OC[C@H]1O[C@@H](c2n[nH]c3c([SeH])ncnc23)[C@H](O)[C@@H]1O	0.035 µM	5.6 µM
CSc1nc(SC)c2[nH]nc([C@@H]3O[C@H](CO)[C@@H](O)[C@H]3O)c2n1	> 1 µM	> 1000 µM
CSc1ncnc2c([C@@H]3O[C@H](CO)[C@@H](O)[C@@]3(C)O)n[nH]c12	2.59 µM	> 1000 µM
OC[C@H]1O[C@@H](c2n[nH]c3c(-n4ccnn4)ncnc23)[C@H](O)[C@@H]1O	0.343 µM	287 µM
C[Se]c1ncnc2c([C@@H]3O[C@H](CO)[C@@H](O)[C@H]3O)n[nH]c12	0.024 µM	< 0.1 µM
C=CCSc1ncnc2c([C@@H]3O[C@H](CO)[C@@H](O)[C@H]3O)n[nH]c12	0.22 µM	412 µM

Compound	IC50 (Influenza A virus)	CC50 at 48 h [1]
CSc1ncnc2c([C@@H]3O[C@H](CO)[C@H](O)[C@H]3O)n[nH]c12		> 1000 µM
CSc1nc(O)nc2c([C@@H]3O[C@H](CO)[C@@H](O)[C@H]3O)n[nH]c12	> 1 µM	> 1000 µM
OC[C@H]1O[C@@H](c2n[nH]c3c(-n4nccn4)ncnc23)[C@H](O)[C@@H]1O	0.103 µM	< 0.1 µM
OC[C@H]1O[C@@H](c2nn3c4c(ncnc24)SCC3)[C@H](O)[C@@H]1O		249 µM
OC[C@H]1O[C@@H](c2n[nH]c3c(N4CCCC4)ncnc23)[C@H](O)[C@@H]1O		211 µM
CCCCSc1ncnc2c([C@@H]3O[C@H](CO)[C@@H](O)[C@H]3O)n[nH]c12		238 µM
OC[C@H]1O[C@@H](c2n[nH]c3c(-c4cnn[nH]4)ncnc23)[C@H](O)[C@@H]1O		> 1000 µM
CSc1ncnc2c([C@@H]3O[C@H](CO)C[C@H]3O)n[nH]c12		> 1000 µM
OC[C@H]1O[C@@H](c2n[nH]c3c(SCC(F)(F)F)ncnc23)[C@H](O)[C@@H]1O	1.09 µM	64 µM
CN[C@H]1[C@H](O)[C@@H](CO)O[C@H]1c1n[nH]c2c(SC)ncnc12		49 µM
CSc1ncnc2c([C@@H]3O[C@H](CO)[C@@H](O)[C@H]3O)n(C)nc12		> 1000 µM
CSc1ncnc2c([C@H]3C[C@H](O)[C@@H](CO)O3)n[nH]c12	> 3 µM	> 1000 µM
OC[C@H]1O[C@@H](c2n[nH]c3c(NCCl)ncnc23)[C@H](O)[C@@H]1O	0.282 µM	19 µM
OC[C@H]1O[C@@H](c2n[nH]c3c(NC4CC4)ncnc23)[C@H](O)[C@@H]1O		431 µM
CSc1ncnc2c([C@H]3C=C[C@@H](CO)O3)n[nH]c12		190 µM
CCSc1ncnc2c([C@@H]3O[C@H](CO)[C@@H](O)[C@H]3O)n[nH]c12	0.201 µM	> 1000 µM
CSc1ncnc2c([C@@H](CO)OC(CO)CO)n[nH]c12		> 1000 µM
CCc1ncnc2c([C@@H]3O[C@H](CO)[C@@H](O)[C@H]3O)n[nH]c12		> 1000 µM
CSCc1ncnc2c([C@@H]3O[C@H](CO)[C@@H](O)[C@H]3O)n[nH]c12		> 1000 µM
OC[C@H]1O[C@@H](c2n[nH]c3c(-n4cncn4)ncnc23)[C@H](O)[C@@H]1O	0.251 µM	7.9 µM
O=c1[nH]cnc2c([C@@H]3O[C@H](CO)[C@@H](O)[C@H]3O)n[nH]c12 [FORMYCIN B]	3.63 µM	68 µM
Nc1ncnc2c([C@@H]3O[C@H](CO)[C@@H](O)[C@H]3O)[nH]nc12 [FORMYCIN]	0.029 µM	2.6 µM
